Reference: patent US11360080B2, “AhR-ROR-γt complex as a biomarker and therapeutic target for autoimmune disease and IL-17A-associated disease” (NATIONAL HEALTH RESEARCH INSTITUTES, priority 2018, dated 2022)

Legend:
AhR-RORγt complex [1] = target: T1, AhR-RORγt complex (UniProt P35869+P51450); assay: FRET assay of HEK293T cells co-transfected with CFP-AhR, YFP-RORγt and IKKβ plasmids; assay type: cell-based; conditions: IKKβ
T1 construct: expressed in transfected cells; host or cells: HEK293T
Procedure: (§1) (A) Luciferase activity of NF-κB-driven reporter assays in stable GLK-transfected CHO-K1 cells that were treated with or without the GLK inhibitor C1 (verteporfin) under the indicated concentration. The fold changes are presented relative to the value of vector control. (B) Recombinant proteins of GLK kinase domain plus recombinant proteins of GST-tagged kinase-dead PKCθ (K409W) were subjected to in vitro kinase assays in the presence or absence of the GLK inhibitor C1 (verteporfin). Means±SD of are shown. *, P value<0.05; **, P value<0.01 (two-tailed Student's t-test). (C) The AhR-RORγt complex was inhibited by the GLK inhibitor. […] (D) Quantification of the PLA signals of (C). […]
FRET signal in live cells was detected by EnVision 2104 Multilabel Plate Reader (Perkin Elmer). The reaction was excited by light passing through a 430-nm filter (with 8 nm bandwidth), and the intensity of emitted fluorescence passing through a 530-nm filter (with 8 nm bandwidth) was recorded. If the protein-protein pair is in close proximity (1-10 nm), a 530-nm signal will be detected. The FRET efficiency was calculated using the following equation: FRET efficiency=((FRET−CFP×a−YFP×b)/YFP)×100%, where FRET, CFP, and YFP correspond to the fluorescent intensities acquired through FRET, CFP, and YFP filter sets, respectively; a and b are the donor emission and acceptor excitation crosstalk ratios, respectively. […]

Lck-GLK Tg mice = assay: Treatment of Lck-GLK Tg mice, serum ELISA; assay type: in vivo, mouse; conditions: 0.556 nmole/g i.v. every 3 days for 30 days
Description: (A to C) Effect of the GLK inhibitor C1 (verteporfin) administration (0.556 nmole/g every 3 days for 30 days) on serum IL-17A and autoantibodies in Lck-GLK Tg mice. (B) ELISA of indicated serum cytokines in Lck-GLK Tg mice treated with C1 (verteporfin) or PBS. (C) ELISA of serum autoantibodies in Lck-GLK Tg mice treated with C1 (verteporfin) or PBS. Means±SEM are shown. (D) Experimental autoimmune encephalomyelitis (EAE) induction in wild-type mice treated with PBS, or the GLK inhibitor C1 (verteporfin) and C2. Clinical scores are presented on a scale of 1 to 5 (left panel). ELISA of IL-17A in the sera from MOG-immunized mice at day 16 (right panel). (E) Collagen-induced arthritis (CIA) induction in wild-type mice treated with the GLK inhibitor C1 (verteporfin) or PBS. Clinical scores are presented on a scale of 1 to 16 (left panel). ELISA of IL-17A in the sera from collagen-immunized mice at day 28. […]
Serum levels of IL-1β, IL-4, IL-6, IL-12, IL-17F, IL-21, IL-22, IL-23, IFN-γ, TNF-α, and TGF-β were analyzed by individual ELISA kits purchased from eBioscience. The IL-17A levels were determined using an ELISA kit from Biolegend. The serum levels of anti-nuclear antibodies (ANA), anti-dsDNA antibody, and rheumatoid factor (RF) were analyzed by ELISA kits purchased from Alpha Diagnostic International. […]

AhR-RORγt complex [2] = assay: Proximity ligation assay (PLA) in peripheral blood T cells of SLE and RA patients; assay type: cell-based, human; conditions: 5 μM for 30 min
Procedure: as §1
PLA assays were performed using the DUOLINK® In Situ Red Starter kit (Sigma) according to the manufacturer's instructions. […] After ligation and amplification reactions, the PLA signals from each pair of PLA probes in close proximity (<40 nm) were visualized as individual red dots by a fluorescence microscope (Leica DM2500) or a confocal microscope (Leica TCS SP5II). […]
T cells of Lck-GLK transgenic mice, GLK-overexpressing T cells, activated T cells or AhR+RORγt+IKKβ-overexpressing cells were used. […] After ligation and amplification reactions, the PLA signals from each pair of PLA probes in close proximity ([…]) were visualized as individual red dots by a fluorescence or a confocal microscope. […]

CIA in wild-type mice = assay: Collagen-induced arthritis (CIA) induction in wild-type mice; assay type: in vivo, mouse
Description: (A to C) Effect of the GLK inhibitor C1 (verteporfin) administration (0.556 nmole/g every 3 days for 30 days) on serum IL-17A and autoantibodies in Lck-GLK Tg mice. (B) ELISA of indicated serum cytokines in Lck-GLK Tg mice treated with C1 (verteporfin) or PBS. (C) ELISA of serum autoantibodies in Lck-GLK Tg mice treated with C1 (verteporfin) or PBS. Means±SEM are shown. (D) Experimental autoimmune encephalomyelitis (EAE) induction in wild-type mice treated with PBS, or the GLK inhibitor C1 (verteporfin) and C2. Clinical scores are presented on a scale of 1 to 5 (left panel). ELISA of IL-17A in the sera from MOG-immunized mice at day 16 (right panel). (E) Collagen-induced arthritis (CIA) induction in wild-type mice treated with the GLK inhibitor C1 (verteporfin) or PBS. Clinical scores are presented on a scale of 1 to 16 (left panel). ELISA of IL-17A in the sera from collagen-immunized mice at day 28. Means±SEM are shown. *, P value<0.05; **, P value<0.01; ***, P value<0.001 (two-tailed Student's […]). C1 denotes verteporfin; C2 denotes alexidine dihydrochloride.
Moreover, overproduction of autoantibodies in Lck-GLK Tg mice were also abolished by C1 (verteporfin) treatment (FIG. 10C). […] To further verify that the GLK inhibitors also works in IL-17A-mediated animal models, we challenged wild-type mice with C1 (verteporfin) or C2 (alexidine dihydrochloride) during EAE and CIA induction.

T1 sequence (P35869 11-848): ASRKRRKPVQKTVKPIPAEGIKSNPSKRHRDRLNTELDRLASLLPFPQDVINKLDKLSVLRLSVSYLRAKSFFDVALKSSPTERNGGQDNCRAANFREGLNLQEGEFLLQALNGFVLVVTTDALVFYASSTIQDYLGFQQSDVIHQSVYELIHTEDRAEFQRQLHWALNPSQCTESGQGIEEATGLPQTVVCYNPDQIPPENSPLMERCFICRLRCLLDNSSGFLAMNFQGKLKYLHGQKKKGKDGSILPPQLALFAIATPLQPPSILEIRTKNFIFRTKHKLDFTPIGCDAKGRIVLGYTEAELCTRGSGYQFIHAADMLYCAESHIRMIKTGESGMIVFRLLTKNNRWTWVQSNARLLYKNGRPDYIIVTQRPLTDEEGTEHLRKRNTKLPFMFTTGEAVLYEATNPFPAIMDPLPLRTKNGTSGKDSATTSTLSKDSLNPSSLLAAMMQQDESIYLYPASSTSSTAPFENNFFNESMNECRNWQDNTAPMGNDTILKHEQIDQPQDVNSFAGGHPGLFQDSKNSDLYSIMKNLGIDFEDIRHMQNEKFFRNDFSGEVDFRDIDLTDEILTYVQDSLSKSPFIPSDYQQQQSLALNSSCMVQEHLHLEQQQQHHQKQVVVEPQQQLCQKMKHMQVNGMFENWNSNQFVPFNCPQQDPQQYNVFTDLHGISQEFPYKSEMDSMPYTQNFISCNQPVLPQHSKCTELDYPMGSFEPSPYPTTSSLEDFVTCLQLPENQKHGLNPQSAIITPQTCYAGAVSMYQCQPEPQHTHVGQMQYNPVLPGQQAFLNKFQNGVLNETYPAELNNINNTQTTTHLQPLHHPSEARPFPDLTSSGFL
T1 sequence (P51450 1-495 isoform P51450-2 T331K): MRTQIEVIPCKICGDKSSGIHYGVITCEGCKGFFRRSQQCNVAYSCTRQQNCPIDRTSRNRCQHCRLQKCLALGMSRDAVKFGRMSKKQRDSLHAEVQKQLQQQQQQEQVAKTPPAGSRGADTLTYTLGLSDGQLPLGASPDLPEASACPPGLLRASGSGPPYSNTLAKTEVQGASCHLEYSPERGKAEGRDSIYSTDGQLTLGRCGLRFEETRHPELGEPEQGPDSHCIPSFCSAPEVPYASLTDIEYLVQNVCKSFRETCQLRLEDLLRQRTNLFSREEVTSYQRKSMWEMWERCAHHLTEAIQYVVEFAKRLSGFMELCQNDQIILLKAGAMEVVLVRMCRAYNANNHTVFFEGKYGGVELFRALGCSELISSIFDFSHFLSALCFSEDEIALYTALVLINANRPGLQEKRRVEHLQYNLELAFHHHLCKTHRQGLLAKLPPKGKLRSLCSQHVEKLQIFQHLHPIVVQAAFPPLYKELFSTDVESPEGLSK

C=Cc1c(C)c2cc3nc(cc4[nH]c(cc5nc(cc1[nH]2)C(C)=C5CCC(=O)O)c(CCC(=O)OC)c4C)[C@@]1(C)C3=CC=C(C(=O)OC)[C@H]1C(=O)OC [C1, verteporfin]
FRET signals AhR-RORγt (AhR-RORγt complex [1]): inhibited | overproduction of autoantibodies (Lck-GLK Tg mice): abolished | serum IL-17A levels (Lck-GLK Tg mice; vs PBS): significantly decreased | AhR-RORγt complex in T cells from SLE and RA patients (AhR-RORγt complex [2]): blocked | PLA signals (quantification) of AhR with RORγt or phospho-RORγt (S489) (AhR-RORγt complex [2]): inhibited | serum IL-17A levels in CIA (CIA in wild-type mice; day 28): inhibited | disease severity (clinical score) in CIA (CIA in wild-type mice; mouse, in vivo): inhibited
